Data from PubChem BioAssay AID328 (DTP/NCI, 2004).
“And” between values parts separate entries of the source, which are not always exact repeats. Equal values may be shown once. Inconclusive results and toxic doses are left out. Rule for the calls: active = survival T/C of 150% or more; inactive = T/C below 125% in these data.

Test system: BDF1 mice, P388 leukemia ip, median survival T/C
Assay: NCI In Vivo Anticancer Drug Screen. Data for tumor model P388 Leukemia (intraperitoneal) in B6D2F1 (BDF1) mice
Settings: endpoint: median survival time, higher = longer survival
How it was run: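 Each value expresses how treatment altered survival: treated-mouse outcome over vehicle-mouse outcome, both groups bearing the transplanted tumour.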

[1] = dose: 50.0 mg/kg/injection, schedule: Q01DX009 (ip), vehicle: saline
[2] = dose: 100.0 mg/kg/injection, schedule: Q01DX009 (ip), vehicle: Klucel (hydroxypropylcellulose) (HPC)
[3] = dose: 100.0 mg/kg/injection, schedule: Q01DX009 (ip), vehicle: saline
[4] = dose: 100.0 mg/kg/injection, schedule: Q04DX003 (ip), vehicle: saline
[5] = dose: 200.0 mg/kg/injection, schedule: Q04DX003 (ip), vehicle: saline
[6] = dose: 50.0 mg/kg/injection, schedule: Q01DX009 (ip), vehicle: Klucel (hydroxypropylcellulose) (HPC)
[7] = dose: 200.0 mg/kg/injection, schedule: Q01DX009 (ip), vehicle: Klucel (hydroxypropylcellulose) (HPC)

Measured: T/C

COc1cc2c[n+](C)c3c4cc(OC)c(OC)cc4ccc3c2cc1OC
active: dose: 25.0 mg/kg/injection, schedule: Q01DX009 (ip), vehicle: other 153 % of control | dose: 34.0 mg/kg/injection, schedule: Q01DX009 (ip), vehicle: saline 159 % of control | dose: 50.0 mg/kg/injection, schedule: Q01DX009 (ip), vehicle: other 174 % of control | [1] 188 % of control | dose: 52.0 mg/kg/injection, schedule: Q01DX009 (ip), vehicle: saline 150 % of control | dose: 80.0 mg/kg/injection, schedule: Q01DX009 (ip), vehicle: saline 165 % of control and 172 % of control | [2] 151 % of control | dose: 100.0 mg/kg/injection, schedule: Q01DX009 (ip), vehicle: other 172 % of control | [3] 200 % of control | dose: 120.0 mg/kg/injection, schedule: Q01DX009 (ip), vehicle: saline 155 % of control and 168 % of control | dose: 180.0 mg/kg/injection, schedule: Q01DX009 (ip), vehicle: saline 159 % of control | dose: 200.0 mg/kg/injection, schedule: Q01DX009 (ip), vehicle: saline 183 % of control | dose: 240.0 mg/kg/injection, schedule: Q04DX003 (ip), vehicle: saline 150 % of control
inactive: dose: 3.12 mg/kg/injection, schedule: Q01DX009 (ip), vehicle: water 98 % of control | dose: 6.25 mg/kg/injection, schedule: Q01DX009 (ip), vehicle: water 112 % of control | dose: 12.5 mg/kg/injection, schedule: Q01DX009 (ip), vehicle: water 118 % of control | dose: 25.0 mg/kg/injection, schedule: Q01DX009 (ip), vehicle: water 120 % of control | dose: 50.0 mg/kg/injection, schedule: Q01DX009 (ip), vehicle: water 100 % of control | dose: 50.0 mg/kg/injection, schedule: Q04DX003 (ip), vehicle: water 103 % of control | dose: 100.0 mg/kg/injection, schedule: Q01DX009 (ip), vehicle: water 106 % of control | [4] 113 % of control | dose: 100.0 mg/kg/injection, schedule: Q04DX003 (ip), vehicle: water 120 % of control | [5] 95 % of control | dose: 240.0 mg/kg/injection, schedule: Q01DX009 (ip), vehicle: saline 90 % of control | dose: 400.0 mg/kg/injection, schedule: Q04DX003 (ip), vehicle: water 92 % of control | dose: 600.0 mg/kg/injection, schedule: Q04DX003 (ip), vehicle: saline 100 % of control

NC(N)=N/N=C/C(Cl)Cl
inactive: dose: 25.0 mg/kg/injection, schedule: Q01DX009 (ip), vehicle: saline 95 % of control and 100 % of control | [1] 104 % of control | [3] 100 % of control and 109 % of control

CNC(=S)N(N)c1ccccc1
inactive: [6] 108 % of control | [2] 94 % of control | dose: 100.0 mg/kg/injection, schedule: Q04DX003 (ip), vehicle: Klucel (hydroxypropylcellulose) (HPC) 90 % of control | [7] 95 % of control | dose: 200.0 mg/kg/injection, schedule: Q04DX003 (ip), vehicle: Klucel (hydroxypropylcellulose) (HPC) 95 % of control

N#Cc1ccc(/C=C/C(=O)c2ccccc2)cc1
inactive: [2] 91 % of control | [7] 116 % of control | dose: 400.0 mg/kg/injection, schedule: Q01DX009 (ip), vehicle: Klucel (hydroxypropylcellulose) (HPC) 107 % of control

CC(CO)S(=O)(=O)C(C)(C)C (stereo not drawn)
inactive: [4] 94 % of control | [5] 95 % of control | dose: 400.0 mg/kg/injection, schedule: Q04DX003 (ip), vehicle: saline 94 % of control

Cc1ccnc(NC(=O)Nc2cc(Cl)ccc2Cl)c1
inactive: dose: 12.5 mg/kg/injection, schedule: Q01DX009 (ip), vehicle: Klucel (hydroxypropylcellulose) (HPC) 101 % of control | dose: 25.0 mg/kg/injection, schedule: Q01DX009 (ip), vehicle: Klucel (hydroxypropylcellulose) (HPC) 103 % of control | [6] 120 % of control
